The target of test [1] is T1, human SGLT1 (Homo sapiens, UniProt P13866).
T1 construct: Full-length human SGLT1 cDNA on pDream2.1 expression vector; host or cells: COS-7 cells (American Type Culture Collection)
T1 sequence (P13866 1-664): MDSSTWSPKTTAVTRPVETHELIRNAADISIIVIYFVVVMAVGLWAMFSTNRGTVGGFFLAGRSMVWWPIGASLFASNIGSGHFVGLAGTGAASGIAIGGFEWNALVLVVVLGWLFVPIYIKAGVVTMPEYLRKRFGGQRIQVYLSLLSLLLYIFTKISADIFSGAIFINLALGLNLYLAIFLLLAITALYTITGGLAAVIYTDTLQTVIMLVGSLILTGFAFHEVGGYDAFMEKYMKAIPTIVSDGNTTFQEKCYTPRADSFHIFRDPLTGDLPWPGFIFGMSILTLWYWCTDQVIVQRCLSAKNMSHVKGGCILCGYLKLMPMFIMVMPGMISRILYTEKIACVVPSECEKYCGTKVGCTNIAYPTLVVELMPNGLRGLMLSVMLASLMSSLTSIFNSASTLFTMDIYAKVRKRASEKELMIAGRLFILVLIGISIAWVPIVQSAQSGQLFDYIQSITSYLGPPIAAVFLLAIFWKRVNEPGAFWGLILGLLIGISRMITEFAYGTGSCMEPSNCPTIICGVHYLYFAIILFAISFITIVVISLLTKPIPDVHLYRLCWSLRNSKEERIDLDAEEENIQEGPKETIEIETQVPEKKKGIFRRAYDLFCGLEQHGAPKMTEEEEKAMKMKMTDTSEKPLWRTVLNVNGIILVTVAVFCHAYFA
Briefly: Methyl-α-D-[U-14C]glucopyranoside uptake assay in COS-7 cells expressing human SGLT1. In kind it is cell-based. The following applies: 2 h incubation. How it is done:
Full-length human SGLT1 cDNA on pDream2.1 expression vector was obtained from GenScript Corporation and propagated in Escherichia coli strain DH5α using Luria-Bertani (LB) medium containing ampicillin. Plasmid DNA was isolated using the QIAGEN Plasmid Midi Kit (QIAGEN Inc.). […] Transfected cells were stored in DMEM containing 10% dimethyl sulfoxide (DMSO) at −80° C.
(§1) Cells expressing SGLT1 or SGLT2 were seeded on 96-well ScintiPlate scintillating plates (PerkinElmer, Inc.) in DMEM containing 10% FBS (1×10^5 cells per well in 100 μl medium) incubated at 37° C. under 5% CO2 for 48 h prior to the assay. Cells were washed twice with 150 μl of either sodium buffer (137 mM NaCl, 5.4 mM KCl, 2.8 mM CaCl2, 1.2 mM MgCl2, 10 mM tris(hydroxymethyl)aminomethane/N^2-hydroxyethylpiperazine-N′-ethanesulfonic acid [Tris/Hepes], pH 7.2) or sodium-free buffer (137 mM N-methyl-glucamine, 5.4 mM KCl, 2.8 mM CaCl2, 1.2 mM MgCl2, 10 mM Tris/Hepes, pH 7.2). Test compound in 50 μl each of sodium or sodium-free buffer containing 40 μCi/ml methyl-α-D-[U-^14C]glucopyranoside (Amersham Biosciences/GE Healthcare), either with (symbols in parentheses) or without (symbols without parentheses) 25% human serum, was added per well of a 96-well plate and incubated at 37° C. with shaking for either 2 h (SGLT1 assay) or 1.5 h (SGLT2 assay). Cells were washed twice with 150 μl of wash buffer (137 mM N-methylglucamine, 10 mM Tris/Hepes, pH 7.2) and methyl-α-D-[U-^14C]glucopyranoside uptake was quantitated using a TopCount scintillation counter (PerkinElmer, Inc.). Sodium-dependent glucopyranoside uptake was measured by subtracting the values obtained with sodium-free buffer from those obtained using sodium buffer (average of triplicate determinations).

Test [2] deals with T2, human SGLT2 (Homo sapiens, UniProt P31639).
T2 construct: A full-length cDNA clone expressing human SGLT2
T2 sequence (P31639 1-672): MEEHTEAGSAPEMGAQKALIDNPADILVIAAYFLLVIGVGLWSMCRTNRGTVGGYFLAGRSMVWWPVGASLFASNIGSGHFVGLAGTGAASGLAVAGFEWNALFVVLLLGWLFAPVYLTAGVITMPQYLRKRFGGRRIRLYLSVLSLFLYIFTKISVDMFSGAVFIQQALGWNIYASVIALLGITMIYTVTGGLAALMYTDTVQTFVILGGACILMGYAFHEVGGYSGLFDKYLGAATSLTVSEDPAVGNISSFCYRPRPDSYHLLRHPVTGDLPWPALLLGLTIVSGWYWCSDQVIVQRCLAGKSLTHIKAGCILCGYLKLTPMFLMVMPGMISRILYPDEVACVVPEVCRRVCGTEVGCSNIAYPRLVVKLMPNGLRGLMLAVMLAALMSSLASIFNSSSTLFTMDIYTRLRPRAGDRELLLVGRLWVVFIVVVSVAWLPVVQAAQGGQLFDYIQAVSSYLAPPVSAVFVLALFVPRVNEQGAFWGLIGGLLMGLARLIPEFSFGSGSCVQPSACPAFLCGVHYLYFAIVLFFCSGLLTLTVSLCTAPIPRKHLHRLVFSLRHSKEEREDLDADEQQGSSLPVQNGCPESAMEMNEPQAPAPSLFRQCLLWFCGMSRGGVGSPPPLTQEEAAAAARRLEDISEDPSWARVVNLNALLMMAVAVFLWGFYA
Briefly: Methyl-α-D-[U-14C]glucopyranoside uptake assay in HEK293.ETN cells stably expressing human SGLT2. In kind it is cell-based. The settings on record: 1.5 h incubation.
Excerpt: A full-length cDNA clone expressing human SGLT2 (GenScript Corporation) was subcloned into Hind III and Not I sites of pEAK15 expression vector. Clones harboring the cDNA inserts were identified by restriction analysis.
Plasmid containing human SGLT2 was linearized with Nsi I and purified by agarose gel electrophoresis. Using Lipofectamine 2000 Transfection Reagent (Invitrogen Corporation), DNA was transfected into HEK293.ETN cells and cultured in Dulbecco's Modified Eagle Medium (DMEM) containing 10% fetal bovine serum (FBS) at 37° C. under 5% CO2 for 24 h. Transfectants were selected in the same growth medium supplemented with puromycin (Invitrogen Corporation) for two weeks. Puromycin-resistant cells were recovered and seeded on a fresh 96-well plate (single cell per well) and cultured in the presence of puromycin until cells became confluent. Puromycin-resistant clones were evaluated for SGLT2 activity in the methyl-α-D-[U-^14C]glucopyranoside uptake assay described below.
as §1

Where [3] appears, read: incubation with 25% human serum (symbols in parentheses).
The mark [4] stands for this setting: without human serum (symbols without parentheses).

As usually defined, the IC50 is the point on the concentration scale where inhibition reaches its midpoint. Regarding `OC[C@H]1O[C@@H](c2ccc(Cl)c(Cc3ccc(OCCOC4CC4)cc3)c2)[C@H](O)[C@@H](O)[C@@H]1O` [Compound BQ, (2S,3R,4R,5S,6R)-2-(4-chloro-3-(4-(2-cyclopropoxyethoxy)benzyl)phenyl)-6-(hydroxymethyl)tetrahydro-2H-pyran-3,4,5-triol], the IC50 in test [1] (setting [3]) is 1000 to 10000 nM; in test [2] (setting [3]), < 1000 nM.

Consider `OC[C@H]1O[C@@H](c2ccc(Cl)c(Cc3ccc(OCCOCCN4CCCC4)cc3)c2)[C@H](O)[C@@H](O)[C@@H]1O` [Compound CH, (2S,3R,4R,5S,6R)-2-(4-chloro-3-(4-(2-(2-(pyrrolidin-1-yl)ethoxy)ethoxy)benzyl)phenyl)-6-(hydroxymethyl)tetrahydro-2H-pyran-3,4,5-triol], for which the half-inhibitory concentration (IC50) in test [1] (setting [3]) was 1000 to 10000 nM; in test [2] (setting [3]), < 1000 nM.

Regarding `OC[C@H]1O[C@@H](c2ccc(Cl)c(Cc3ccc(OCCO[C@H]4CCOC4)cc3)c2)[C@H](O)[C@@H](O)[C@@H]1O` [Compound CK, (2S,3R,4R,5S,6R)-2-(4-chloro-3-(4-(2-((S)-tetrahydrofuran-3-yloxy)ethoxy)benzyl)phenyl)-6-(hydroxymethyl)tetrahydro-2H-pyran-3,4,5-triol], the IC50 is 1000 to 10000 nM in test [1] (setting [3]) and < 1000 nM in test [2] (setting [3]).

For `OC[C@H]1O[C@@H](c2ccc(Cl)c(Cc3ccc(COC4CC4)cc3)c2)[C@H](O)[C@@H](O)[C@@H]1O` [Compound CX, (2S,3R,4R,5S,6R)-2-(4-chloro-3-(4-(cyclopropoxymethyl)benzyl)phenyl)-6-(hydroxymethyl)tetrahydro-2H-pyran-3,4,5-triol], the IC50 in test [1] (setting [3]) was > 10000 nM; in test [2] (setting [3]), < 1000 nM.

On to `COCCOCCOc1ccc(Cc2cc([C@@H]3O[C@H](CO)[C@@H](O)[C@H](O)[C@H]3O)ccc2Cl)cc1` [Compound M, (2S,3R,4R,5S,6R)-2-(4-chloro-3-(4-(2-(2-methoxyethoxy)ethoxy)benzyl)phenyl)-6-(hydroxymethyl)tetrahydro-2H-pyran-3,4,5-triol], for which the values for the concentration for half-maximal inhibition (IC50) in test [1] (setting [4]) and in test [2] (setting [4]) were 1000 to 10000 nM and < 1000 nM, respectively.

As for `OC[C@H]1O[C@@H](c2ccc(Cl)c(Cc3ccc(OCCOC4CCCC4)cc3)c2)[C@H](O)[C@@H](O)[C@@H]1O` [Compound AD, (2S,3R,4R,5S,6R)-2-(4-chloro-3-(4-(2-(cyclopentyloxy)ethoxy)benzyl)phenyl)-6-(hydroxymethyl)tetrahydro-2H-pyran-3,4,5-triol], the figures for the IC50 in test [1] (setting [3]) and in test [2] (setting [3]) were 1000 to 10000 nM and < 1000 nM, respectively.

Regarding `OCC#CCOc1ccc(Cc2cc([C@@H]3O[C@H](CO)[C@@H](O)[C@H](O)[C@H]3O)ccc2Cl)cc1` [Compound X, (2S,3R,4R,5S,6R)-2-(4-chloro-3-(4-(4-hydroxybut-2-ynyloxy)benzyl)phenyl)-6-(hydroxymethyl)tetrahydro-2H-pyran-3,4,5-triol], the figures for the IC50 in test [1] (setting [3]) and in test [2] (setting [3]) were 1000 to 10000 nM and < 1000 nM, respectively.

`OC[C@H]1O[C@@H](c2ccc(Cl)c(Cc3ccc(CCCOC4CC4)cc3)c2)[C@H](O)[C@@H](O)[C@@H]1O` [Compound DJ, (2S,3R,4R,5S,6R)-2-(4-chloro-3-(4-(3-cyclopropoxypropyl)benzyl)phenyl)-6-(hydroxymethyl)tetrahydro-2H-pyran-3,4,5-triol]: the values for the IC50 in test [1] (setting [3]) and in test [2] (setting [3]) were 1000 to 10000 nM and < 1000 nM, respectively.

Take `CC(COc1ccc(Cc2cc([C@@H]3O[C@H](CO)[C@@H](O)[C@H](O)[C@H]3O)ccc2Cl)cc1)OC1CC1` (stereo partly drawn) [Compound DC, (2S,3R,4R,5S,6R)-2-(4-chloro-3-(4-(2-cyclopropoxypropoxy)benzyl)phenyl)-6-(hydroxymethyl)tetrahydro-2H-pyran-3,4,5-triol]: the IC50 was 1000 to 10000 nM in test [1] (setting [3]) and < 1000 nM in test [2] (setting [3]).

`OC[C@H]1O[C@@H](c2ccc(Cl)c(Cc3ccc(OCCOC4CCC4)cc3)c2)[C@H](O)[C@@H](O)[C@@H]1O` [Compound CM, (2S,3R,4R,5S,6R)-2-(4-chloro-3-(4-(2-cyclobutoxyethoxy)benzyl)phenyl)-6-(hydroxymethyl)tetrahydro-2H-pyran-3,4,5-triol]: the concentration for half-maximal inhibition (IC50) in test [1] (setting [3]) was > 10000 nM; in test [2] (setting [3]), < 1000 nM.

On to `C=CCOCCOc1ccc(Cc2cc([C@@H]3O[C@H](CO)[C@@H](O)[C@H](O)[C@H]3O)ccc2Cl)cc1` [Compound P, (2S,3R,4R,5S,6R)-2-(3-(4-(2-(allyloxy)ethoxy)benzyl)-4-chlorophenyl)-6-(hydroxymethyl)tetrahydro-2H-pyran-3,4,5-triol], for which the IC50 was 1000 to 10000 nM in test [1] (setting [3]) and < 1000 nM in test [2] (setting [3]).

Take `OC[C@H]1O[C@@H](c2ccc(Cl)c(Cc3ccc(CCOC(F)F)cc3)c2)[C@H](O)[C@@H](O)[C@@H]1O` [Compound BN, (2S,3R,4R,5S,6R)-2-(4-chloro-3-(4-(2-(difluoromethoxy)ethyl)benzyl)phenyl)-6-(hydroxymethyl)tetrahydro-2H-pyran-3,4,5-triol]: the IC50 in test [1] (setting [3]) was > 10000 nM; in test [2] (setting [3]), < 1000 nM.

Turning to `C#CCOCC(C)Oc1ccc(Cc2cc([C@@H]3O[C@H](CO)[C@@H](O)[C@H](O)[C@H]3O)ccc2Cl)cc1` (stereo partly drawn) [Compound T, (2S,3R,4R,5S,6R)-2-(4-chloro-3-(4-(1-(prop-2-ynyloxy)propan-2-yloxy)benzyl)phenyl)-6-(hydroxymethyl)tetrahydro-2H-pyran-3,4,5-triol], the IC50 in test [1] (setting [3]) is > 10000 nM; in test [2] (setting [3]) it was < 1000 nM.

Take `C#CCOCCOc1ccc(Cc2cc([C@@H]3O[C@H](CO)[C@@H](O)[C@H](O)[C@H]3O)ccc2Cl)cc1` [Compound R, (2S,3R,4R,5S,6R)-2-(4-chloro-3-(4-(2-(prop-2-ynyloxy)ethoxy)benzyl)phenyl)-6-(hydroxymethyl)tetrahydro-2H-pyran-3,4,5-triol]: the IC50 in test [1] (setting [3]) was 1000 to 10000 nM; in test [2] (setting [3]), < 1000 nM.

Consider `OC[C@H]1O[C@@H](c2ccc(Cl)c(Cc3ccc(OCCOC4C=CCCC4)cc3)c2)[C@H](O)[C@@H](O)[C@@H]1O` (stereo partly drawn) [Compound BW, (2S,3R,4R,5S,6R)-2-(4-chloro-3-(4-(2-(cyclohex-2-enyloxy)ethoxy)benzyl)phenyl)-6-(hydroxymethyl)tetrahydro-2H-pyran-3,4,5-triol], for which the half-maximal inhibitory concentration (IC50) in test [1] (setting [3]) was > 10000 nM; in test [2] (setting [3]) it was < 1000 nM.
